Bridge positions count the residues as written; N and C are the ends. Square brackets hold non-standard residues; d marks the D form. Peptide text beside a SMILES is read from it. ξ: configuration not given here. Trp(1-Me) = Cn1cc(C[C@H](N)C(=O)O)c2ccccc21; 2Nal = N[C@@H](Cc1ccc2ccccc2c1)C(=O)O; ξOrn = NCCCC(N)C(=O)O; Aib = CC(C)(N)C(=O)O
Target: Interleukin-23 subunit alpha/receptor (UniProt Q5VWK5)
Assay: ELISA assay for specific human IL-23R inhibitors
Protocol: A 384-well plate was coated with 50 µl/well of human IL-23 at a final concentration of […] and incubated overnight at 4°C. The wells were washed 3 times with […] wash buffer and blocked with […] blocking buffer for 60 minutes at room temperature and washed again. 20 µl of serially diluted test peptides was added to each well and subsequently 20 µl of recombinant human IL-23R-Fc chimera at final concentration of […]. The plate was incubated for 60 minutes at room temperature. After the wells were washed, bound IL-23R-Fc was detected with goat anti-hu- IgG 1 -HRP antibody. Signals were visualized with QuantaBlu Fluorogenic Peroxidase Substrate.

Chain of Interleukin-23 subunit alpha/receptor (Q9NPF7 whole entry): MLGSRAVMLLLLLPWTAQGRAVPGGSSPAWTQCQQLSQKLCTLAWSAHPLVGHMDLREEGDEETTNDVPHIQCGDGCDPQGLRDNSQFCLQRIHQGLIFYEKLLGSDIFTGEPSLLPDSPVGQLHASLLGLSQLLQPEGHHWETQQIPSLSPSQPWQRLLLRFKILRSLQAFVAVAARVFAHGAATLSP
Chain of Interleukin-23 subunit alpha/receptor (Q5VWK5 whole entry): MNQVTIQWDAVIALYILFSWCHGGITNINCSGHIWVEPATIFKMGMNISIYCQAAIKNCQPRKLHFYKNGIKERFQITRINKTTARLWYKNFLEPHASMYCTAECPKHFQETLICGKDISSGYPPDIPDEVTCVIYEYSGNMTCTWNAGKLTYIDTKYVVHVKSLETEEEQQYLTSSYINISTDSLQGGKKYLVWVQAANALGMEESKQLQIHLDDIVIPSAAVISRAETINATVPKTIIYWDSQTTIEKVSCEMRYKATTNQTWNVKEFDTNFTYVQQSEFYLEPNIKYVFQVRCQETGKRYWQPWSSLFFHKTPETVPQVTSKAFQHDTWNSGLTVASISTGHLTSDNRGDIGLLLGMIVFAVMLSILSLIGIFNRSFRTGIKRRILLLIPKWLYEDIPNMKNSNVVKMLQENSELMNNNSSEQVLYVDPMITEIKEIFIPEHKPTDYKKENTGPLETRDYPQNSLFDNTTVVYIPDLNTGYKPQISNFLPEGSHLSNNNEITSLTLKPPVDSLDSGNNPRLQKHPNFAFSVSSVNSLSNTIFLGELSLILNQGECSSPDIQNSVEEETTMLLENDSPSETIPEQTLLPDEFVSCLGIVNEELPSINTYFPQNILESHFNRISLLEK

IC50 [nM]	SMILES
9.64	COc1ccc(C[C@@H]2NC(=O)[C@H](CCCNC(=N)N)NC(=O)[C@H](CCC(N)=O)NC(=O)[C@H](Cc3c[nH]c4ccccc34)NC(=O)[C@H]([C@@H](C)O)NC(=O)[C@H](CC(N)=O)NC(=O)[C@H](NC(C)=O)CCCCNC(=O)C[C@@H](C(=O)N[C@@H](CC(N)=O)C(=O)N[C@@H](CC(N)=O)C(=O)O)NC(=O)[C@H](CCC(N)=O)NC(=O)[C@H](Cc3ccc4ccccc4c3)NC2=O)cc1 [WO2025051920, Example 30]
2.68	COc1ccc(C[C@@H]2NC(=O)C(C)(C)NC(=O)[C@H](CCC(N)=O)NC(=O)[C@H](Cc3c[nH]c4ccccc34)NC(=O)[C@H]([C@@H](C)O)NC(=O)[C@H](CC(N)=O)NC(=O)[C@H](NC(C)=O)CCCCNC(=O)C[C@@H](C(=O)N[C@@H](CC(N)=O)C(=O)N[C@@H](CC(N)=O)C(=O)O)NC(=O)C(C)(C)NC(=O)[C@H](Cc3ccc4ccccc4c3)NC2=O)cc1 [WO2025051920, Example 32]
4.55	COc1ccc(C[C@@H]2NC(=O)[C@H](CCCNC(=N)N)NC(=O)[C@H](CCC(N)=O)NC(=O)[C@H](Cc3cn(C)c4ccccc34)NC(=O)[C@H]([C@@H](C)O)NC(=O)[C@H](CC(N)=O)NC(=O)[C@@H](NC(C)=O)CCC(=O)NCCCC(C(=O)N[C@@H](CC(N)=O)C(=O)N[C@@H](CC(N)=O)C(=O)O)NC(=O)C(C)(C)NC(=O)[C@H](Cc3ccc4ccccc4c3)NC2=O)cc1 (stereo partly drawn) [WO2025051920, Example 35] (Ac-ENT[Trp(1-Me)]QRY(Me)[2Nal][Aib][ξOrn]NN-OH; lactam 1-10)

The remaining lines, values behind:

SMILES	IC50 [nM]
COc1ccc(C[C@@H]2NC(=O)[C@H](CCCNC(=N)N)NC(=O)[C@H](CCC(N)=O)NC(=O)[C@H](Cc3c[nH]c4ccccc34)NC(=O)[C@H]([C@@H](C)O)NC(=O)[C@H](CC(N)=O)NC(=O)[C@H](NC(C)=O)CCCCNC(=O)C[C@@H](C(=O)N[C@@H](CC(N)=O)C(=O)N[C@@H](CC(N)=O)C(=O)O)NC(=O)[C@H](CCCNC(N)=O)NC(=O)[C@H](Cc3ccc4ccccc4c3)NC2=O)cc1 [WO2025051920, Example 29]	5.63
COc1ccc(C[C@@H]2NC(=O)[C@H](C(C)C)NC(=O)[C@H](CCC(N)=O)NC(=O)[C@H](Cc3c[nH]c4ccccc34)NC(=O)[C@H]([C@@H](C)O)NC(=O)[C@H](CC(N)=O)NC(=O)[C@H](NC(C)=O)CCCCNC(=O)C[C@@H](C(=O)N[C@@H](CC(N)=O)C(=O)N[C@@H](CC(N)=O)C(=O)O)NC(=O)C(C)(C)NC(=O)[C@H](Cc3ccc4ccccc4c3)NC2=O)cc1 [WO2025051920, Example 31]	8.27
CC(=O)N[C@H]1CC(=O)NCCCC(C(=O)N[C@@H](CC(N)=O)C(=O)N[C@@H](CC(N)=O)C(=O)O)NC(=O)C(C)(C)NC(=O)[C@H](Cc2ccc3ccccc3c2)NC(=O)[C@H](Cc2ccc(O)cc2)NC(=O)[C@H](CCCNC(=N)N)NC(=O)[C@H](CCC(N)=O)NC(=O)[C@H](Cc2cn(C)c3ccccc23)NC(=O)[C@H]([C@@H](C)O)NC(=O)[C@H](CC(N)=O)NC1=O (stereo partly drawn) [WO2025051920, Example 33] (Ac-DNT[Trp(1-Me)]QRY[2Nal][Aib][ξOrn]NN-OH; lactam 1-10)	3.36
COc1ccc(C[C@@H]2NC(=O)[C@H](CCCNC(=N)N)NC(=O)[C@H](CCC(N)=O)NC(=O)[C@H](Cc3cn(C)c4ccccc34)NC(=O)[C@H]([C@@H](C)O)NC(=O)[C@H](CC(N)=O)NC(=O)[C@@H](NC(C)=O)CC(=O)NCCCC(C(=O)N[C@@H](CC(N)=O)C(=O)N[C@@H](CC(N)=O)C(=O)O)NC(=O)C(C)(C)NC(=O)[C@H](Cc3ccc4ccccc4c3)NC2=O)cc1 (stereo partly drawn) [WO2025051920, Example 34] (Ac-DNT[Trp(1-Me)]QRY(Me)[2Nal][Aib][ξOrn]NN-OH; lactam 1-10)	2.16
COc1ccc(C[C@@H]2NC(=O)[C@H](CCCNC(=N)N)NC(=O)[C@H](CCC(N)=O)NC(=O)[C@H](Cc3cn(C)c4ccccc34)NC(=O)[C@H]([C@@H](C)O)NC(=O)[C@H](CC(N)=O)NC(=O)[C@@H](NC(C)=O)CC(=O)NCCCC(C(=O)N[C@@H](CC(N)=O)C(=O)N[C@@H](CC(N)=O)C(=O)O)NC(=O)C(C)(C)NC(=O)[C@H](Cc3c[nH]c4ccccc34)NC2=O)cc1 (stereo partly drawn) [WO2025051920, Example 36] (Ac-DNT[Trp(1-Me)]QRY(Me)W[Aib][ξOrn]NN-OH; lactam 1-10)	19.5

From BindingDB's records for patent WO2025051920 (Sanofi-Aventis Deutschland, 2025)
